Like-named read-outs stand apart in the source and are kept apart here.
Columns and labels:
hMC4R = hMC4R (Homo sapiens (Human), UniProt P32245); assay: In vitro binding affinity assay using hMC4R (radioligand competition binding, [125I]-(Nle4, D-Phe7)-α-MSH); conditions: geometric mean
Method: Example AA. In Vitro Binding Affinity Assay Using hMC4R
The binding affinity of test compounds at the […] (hMC4R) was assessed using a radioligand competition binding assay. […] Cell membranes were bulked and frozen until the assay was performed.
Compounds were solubilized in 100% dimethyl sulfoxide (DMSO) to a concentration of 30 mM. A 10-point intermediate dilution series using half log dilutions was created in 100% DMSO with a top concentration of 0.03 mM. […] The final compound range in the assay was 300 nM to 0.01 nM with a final DMSO concentration of 1%. […] The exact concentration of radioligand used for each experiment was determined by liquid scintillation counting and adjusted if necessary.
Frozen hMC4R cell membranes were thawed and Dounce homogenized. Homogenates were resuspended in assay buffer to a concentration of 2 μg per well. […] The plates were incubated for 2 hours at room temperature.
The raw data (expressed as counts per minute) were analyzed using ActivityBase (IDBS Data Management Software). […] Equilibrium dissociation constant for inhibitor of ligand and receptor interaction (Ki) values were then calculated from the IC50 values using the Cheng-Prusoff equation: Ki=IC50/(1+([L]/Kd)), where [L] is the concentration of the radioligand used in the experiment and Kd is the affinity of the radioligand (determined in separate saturation experiments).

[1] = target: human Melanocortin-4 receptor (MC4R) (Homo sapiens (Human), UniProt P32245); assay: Functional in vitro MC4R antagonist potency assay (cAMP HTRF in CHO cells); type: cell-based
Summary of the method: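 CHO cells stably expressing human MC4R were preincubated 30 min at 37 °C with compound ([…], 0.1% DMSO), then stimulated 30 min with EC80 αMSH (200 nM). Intracellular cAMP quantified by HTRF competitive immunoassay and normalized to agonist-stimulated and vehicle-only wells.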

[2] = read-out: Ki (nM) geometric mean
[3] = read-out: Kb (nM) Antagonist geometric mean
[4] = human MC4R in CHO cells, cAMP HTRF, 200 nM aMSH challenge, Kb from IC50 by Leff-Dougall equation, geometric mean, read-out: Kb (nM) Antagonist geometric

Chain of human Melanocortin-4 receptor (MC4R) (P32245 whole entry): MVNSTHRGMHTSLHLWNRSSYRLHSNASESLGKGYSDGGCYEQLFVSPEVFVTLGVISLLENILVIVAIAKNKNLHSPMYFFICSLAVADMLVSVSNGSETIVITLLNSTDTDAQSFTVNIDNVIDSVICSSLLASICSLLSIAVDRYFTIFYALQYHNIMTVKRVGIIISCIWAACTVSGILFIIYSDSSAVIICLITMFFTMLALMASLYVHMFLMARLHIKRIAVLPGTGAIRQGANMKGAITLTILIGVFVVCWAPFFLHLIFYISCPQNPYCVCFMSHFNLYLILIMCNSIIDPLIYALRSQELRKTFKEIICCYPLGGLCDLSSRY
Chain of hMC4R (P32245 whole entry): as above

| Ki (hMC4R; [2]) | Kb [1, 3] | Ki (hMC4R; read-out: Ki (nM) geometric) | Kb [1, 4] | SMILES |
| --- | --- | --- | --- | --- |
| 0.21 nM | 0.049 nM | – | – | COc1cc([C@@H](C)C(=O)N2CCC3(CCc4cc(-c5nnn(C)n5)c(C)nc4N3)C2)c(Cl)cn1 (single isomer, unassigned) [Example 1] |
| 4.5 nM | 1.2 nM | – | – | COc1cc([C@@H](C)C(=O)N2CCC3(CCc4cc(-c5nnn(C)n5)c(C)nc4N3)C2)c(Cl)cn1 (single isomer, unassigned) [Example 2] |
| 0.36 nM | 0.88 nM | – | – | COc1cc([C@@H](C)C(=O)N2CCC3(CCc4cc(-c5cnn(C)c5)c(C)nc4N3)C2)c(F)cn1 (single isomer, unassigned) [Example 16] |
| 69 nM | > 64 nM | – | – | COc1cc([C@@H](C)C(=O)N2CCC3(CCc4cc(-c5cnn(C)c5)c(C)nc4N3)C2)c(F)cn1 (single isomer, unassigned) [Example 17] |
| 0.9 nM | 4.2 nM | – | – | Cc1nc2c(cc1-c1ncccn1)CC[C@@]1(CCN(C(=O)[C@H](C)c3ccc(Cl)cc3Cl)C1)N2 (single isomer, unassigned) [Example 34] |
| 82 nM | > 95 nM | – | – | Cc1nc2c(cc1-c1ncccn1)CC[C@@]1(CCN(C(=O)[C@H](C)c3ccc(Cl)cc3Cl)C1)N2 (single isomer, unassigned) [Example 35] |
| 0.52 nM | 0.19 nM | – | – | COc1cc([C@@H](C)C(=O)N2CC[C@@]3(CCc4cc(-c5ncccn5)c(C)nc4N3)C2)c(C(F)F)cn1 (single isomer, unassigned) [Example 36] |
| 0.53 nM | 0.12 nM | – | – | COc1cc([C@@H](C)C(=O)N2CC[C@@]3(CCc4cc(-c5ncccn5)c(C)nc4N3)C2)c(C(F)(F)F)cn1 (single isomer, unassigned) [Example 41] |
| 120 nM | > 110 nM | – | – | Cc1nc2c(cc1-c1ncccn1)CC[C@@]1(CCN(C(=O)[C@H](C)c3ccc(F)c(F)c3)C1)N2 (single isomer, unassigned) [Example 51] |
| 0.68 nM | 2.6 nM | – | – | Cc1nc2c(cc1-c1ncccn1)CC[C@@]1(CCN(C(=O)[C@H](C)c3cc(F)c(F)cc3F)C1)N2 (single isomer, unassigned) [Example 52] |
| 54 nM | > 95 nM | – | – | Cc1nc2c(cc1-c1ncccn1)CC[C@@]1(CCN(C(=O)[C@H](C)c3cc(F)c(F)cc3F)C1)N2 (single isomer, unassigned) [Example 53] |
| 2.5 nM | 12 nM | – | – | COc1nccc([C@@H](C)C(=O)N2CC[C@@]3(CCc4cc(-c5ncccn5)c(C)nc4N3)C2)c1F (single isomer, unassigned) [Example 57] |
| 190 nM | > 62 nM | – | – | COc1nccc([C@@H](C)C(=O)N2CC[C@@]3(CCc4cc(-c5ncccn5)c(C)nc4N3)C2)c1F (single isomer, unassigned) [Example 58] |
| 0.54 nM | 0.18 nM | – | – | Cc1nc2c(cc1-c1ncccn1)CC[C@@]1(CCN(C(=O)[C@H](C)c3cc(OC(F)F)ncc3Cl)C1)N2 (single isomer, unassigned) [Example 60] |
| 2.2 nM | 9 nM | – | – | Cc1nc2c(cc1-c1ncccn1)CC[C@@]1(CCN(C(=O)[C@H](C)c3cc(OC(F)(F)F)ncc3F)C1)N2 (single isomer, unassigned) [Example 76] |
| 0.62 nM | 1.2 nM | – | – | Cc1nc2c(cc1-c1ncccn1)CC[C@@]1(CCN(C(=O)[C@H](C)c3cc(OC(F)F)ncc3F)C1)N2 (single isomer, unassigned) [Example 78] |
| 8 nM | 28 nM | – | – | Cc1nc2c(cc1-c1ncccn1)CC[C@@]1(CCN(C(=O)[C@H](C)c3cc(C(F)(F)F)ncc3F)C1)N2 (single isomer, unassigned) [Example 80] |
| 16 nM | 4.1 nM | – | – | COc1cc([C@@H](C)C(=O)N2CC[C@@]3(CCc4cc(-c5nc(C(F)(F)F)n(C)n5)c(C)nc4N3)C2)c(F)cn1 (single isomer, unassigned) [Example 93] |
| 86 nM | 7.5 nM | – | – | COc1cc([C@@H](C)C(=O)N2CC[C@@]3(CCc4cc(-c5nc(C(F)(F)F)n(C)n5)c(C)nc4N3)C2)c(Cl)cn1 (single isomer, unassigned) [Example 95] |
| – | – | 54 nM | 16 nM | COc1cc([C@@H](C)C(=O)N2CC[C@@]3(CCc4cc(-c5cnn(C)c5)c(C)nc4N3)C2)c(Cl)cn1 (single isomer, unassigned) [Example 105] |
| – | – | 1.2 nM | 7.1 nM | Cc1nc2c(cc1-c1nnn(C)n1)CC[C@@]1(CCN(C(=O)[C@H](C)c3ccc(OC(F)F)nc3)C1)N2 (single isomer, unassigned) [Example 108] |
| – | – | 5.5 nM | – | COc1cc([C@@H](C)C(=O)N2CC[C@@]3(CCc4cc(-c5nc(N(C)C)cc(C(F)(F)F)n5)c(C)nc4N3)C2)c(F)cn1 [Example 185, (2R)-1-{(2S)-6-[4-(dimethylamino)-6-(trifluoromethyl)pyrimidin-2-yl]-7-methyl-3,4-dihydro-1H-spiro[1,8-naphthyridine-2,3′-pyrrolidin]-1′-yl}-2-(5-fluoro-2-methoxypyridin-4-yl)propan-1-one] |

More lines, now with the values behind:

| SMILES | Ki (hMC4R; [2]) | Kb [1, 3] | Ki (hMC4R; read-out: Ki (nM) geometric) | Kb [1, 4] |
| --- | --- | --- | --- | --- |
| Cc1nc2c(cc1-c1ncccn1)CC[C@@]1(CCN(C(=O)C(C)c3ccc(OC(F)F)nc3)C1)N2 (single isomer, unassigned) [Example 6] | 0.44 nM | 8.5 nM | – | – |
| Cc1nc2c(cc1-c1ncccn1)CC[C@@]1(CCN(C(=O)C(C)c3ccc(C(F)(F)F)cc3)C1)N2 (single isomer, unassigned) [Example 7] | 0.62 nM | 8.1 nM | – | – |
| Cc1nc2c(cc1-c1ncccn1)CC[C@@]1(CCN(C(=O)C(C)c3ccc(C(F)(F)F)cc3)C1)N2 (single isomer, unassigned) [Example 8] | 76 nM | > 95 nM | – | – |
| COc1cc([C@@H](C)C(=O)N2CC[C@@]3(CCc4ccc(C)nc4N3)C2)nc(C)n1 (single isomer, unassigned) [Example 24, 2-(6-methoxy-2-methylpyrimidin-4-yl)-1-(7-methyl-3,4-dihydro-1H-spiro[1,8-naphthyridine-2,3′-pyrrolidin]-1′-yl)propan-1-one] | 77 nM | > 97 nM | – | – |
| COc1cc([C@@H](C)C(=O)N2CC[C@@]3(CCc4ccc(C)nc4N3)C2)nc(C)n1 (single isomer, unassigned) [Example 25, 2-(6-methoxy-2-methylpyrimidin-4-yl)-1-(7-methyl-3,4-dihydro-1H-spiro[1,8-naphthyridine-2,3′-pyrrolidin]-1′-yl)propan-1-one] | 220 nM | > 97 nM | – | – |
| COc1cc([C@@H](C)C(=O)N2CC[C@@]3(CCc4ccc(C)nc4N3)C2)nc(C)n1 (single isomer, unassigned) [Example 26, 2-(6-methoxy-2-methylpyrimidin-4-yl)-1-(7-methyl-3,4-dihydro-1H-spiro[1,8-naphthyridine-2,3′-pyrrolidin]-1′-yl)propan-1-one] | 210 nM | > 97 nM | – | – |
| Cc1nc2c(cc1-c1ncccn1)CC[C@@]1(CCN(C(=O)[C@H](C)c3cc(C(F)(F)F)ncc3Cl)C1)N2 (single isomer, unassigned) [Example 39] | 4.9 nM | 23 nM | – | – |
| Cc1nc(OC(F)F)cc([C@@H](C)C(=O)N2CC[C@@]3(CCc4cc(-c5ncccn5)c(C)nc4N3)C2)n1 (single isomer, unassigned) [Example 45] | 0.95 nM | 0.76 nM | – | – |
| Cc1nc2c(cc1-c1ncccn1)CC[C@@]1(CCN(C(=O)[C@H](C)c3ccc(OC(F)(F)F)cc3)C1)N2 (single isomer, unassigned) [Example 48] | 0.36 nM | 1.8 nM | – | – |
| Cc1nc2c(cc1-c1ncccn1)CC[C@@]1(CCN(C(=O)[C@H](C)c3ccc(OC(F)(F)F)cc3)C1)N2 (single isomer, unassigned) [Example 49] | 64 nM | > 95 nM | – | – |
| Cc1nc2c(cc1-c1ncccn1)CC[C@@]1(CCN(C(=O)[C@H](C)c3cc(F)c(F)c(F)c3)C1)N2 (single isomer, unassigned) [Example 55] | 58 nM | > 95 nM | – | – |
| Cc1nc2c(cc1-c1ncccn1)CC[C@@]1(CCN(C(=O)[C@H](C)c3cc(F)c(F)c(F)c3)C1)N2 (single isomer, unassigned) [Example 56] | 0.51 nM | 0.8 nM | – | – |
| COc1cc(OC(F)F)cc([C@@H](C)C(=O)N2CC[C@@]3(CCc4cc(-c5ncccn5)c(C)nc4N3)C2)c1 (single isomer, unassigned) [Example 62] | 0.15 nM | 0.08 nM | – | – |
| Cc1nc2c(cc1-c1ncccn1)CC[C@@]1(CCN(C(=O)C(C)c3cc(OC(F)(F)F)ncc3Cl)C1)N2 (single isomer, unassigned) [Example 64] | 1 nM | 5.1 nM | – | – |
| COc1cc(OC)cc([C@@H](C)C(=O)N2CC[C@@]3(CCc4ccc(C)nc4N3)C2)c1 (single isomer, unassigned) [Example 96] | 4.1 nM | 11 nM | – | – |
